# Assay results taken from US9670204B2, “Compounds and pharmaceutical compositions thereof for the treatment of inflammatory disorders” (Galapagos NV, priority 2013, dated 2017).
# What was measured:
# hENPP2 [1] = target: T1, hENPP2 (UniProtKB/SwissProt Q13822) (Homo sapiens (Human), UniProt Q13822); assay: hENPP2 biochemical assay, LPC as substrate; settings: LPC (palmitoyl 16:0) as substrate
# Outline: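 Human ENPP2 in 50 mM Tris-HCl pH 8.5, 500 mM NaCl, 5 mM KCl, 10 mM CaCl2, 0.1% fatty-acid-free BSA, reacted 30 min at 37 °C with LPC 16:0 (150 µM solution added 1:1). Released choline measured via choline oxidase/peroxidase/TOOS/4-aminoantipyrine quinoneimine dye at 555 nm; IC50 reported.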
# hENPP2 [2] = target: T1, hENPP2; assay: fluorescent hENPP2 biochemical assay, FS-3 as substrate; settings: read-out: FS3-IC50
# Outline: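 IC50 values come from fluorescence gained as FS-3 is hydrolysed (ex 485, em 520 nm). The reaction, started by adding 0.75 μM FS-3 solution, runs 30 min at 30° C after a 30 min room-temperature preincubation of compound with enzyme. Buffer: Tris-HCl pH 8.0 with NaCl, KCl, MgCl2, CaCl2 and 0.1% BSA.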
# LPA 18:2 in rat plasma = assay: Rat whole blood (plasma) LPA assay; format: biochemical; settings: 2 h at 37 C, LPA 18:2 by LC-MS/MS
# Protocol: Whole blood is collected from rats or mouse by exsanguinations on sodium heparin tube, then after centrifugation at 3000 rpm for 15 min at 4° C., plasma is stored at −80° C. Compounds are diluted in DMSO in concentration dependent manner then 0.5 μL are dispensed into 96-well plate placed in ice. Plasma is defrosted on ice then 49.5 μL of plasma are added into the well containing 0.5 μL of compound (1% DMSO final). Plates are covered with a lid in polypropylene and incubated at +37° C., 5% CO2, for 2 h under gentle shaking (except controls which are stored at −20° C.).
# At the end of the incubation, controls are defrosted in ice and transferred in the incubated plates for LC-MS/MS analysis with a non GLP-validated method. For the analysis, plasma proteins from a 10 μL incubated plates are precipitated with an excess of methanol containing the internal standard, LPA 17:0. After centrifugation, the corresponding supernatant is injected on a C18 column. Analytes are eluted out of the column under isocratic conditions. An API5500 QTRAP mass spectrometer (ABSciex™) is used for the detection of LPA 18:2. No calibration curve is prepared for LPA 18:2, however relative quantities are evaluated based on the peak area.
IC50 (hENPP2 [1]) [nM],IC50 (hENPP2 [2]) [nM],IC50 (LPA 18:2 in rat plasma) [nM],SMILES
0.01 to 100,0.01 to 100,0.01 to 100,"CCc1nc2ccc(C3CCN(CC(=O)N4CC(O)C4)CC3)cn2c1N(C)c1nc(-c2ccc(F)cc2)c(C#N)s1 [Compound 141, 2-((2-ethyl-6-(1-(2-(3-hydroxyazetidin-1-yl)-2-oxoethyl)piperidin-4-yl)imidazo[1,2-a]pyridin-3-yl)(methyl)amino)-4-(4-fluorophenyl)thiazole-5-carbonitrile]"
0.01 to 100,0.01 to 100,0.01 to 100,"CCc1nc2ccc(C3CCN(CC(=O)N4CC[C@H](O)C4)CC3)cn2c1N(C)c1nc(-c2ccc(F)cc2)c(C#N)s1 [Compound 143, (S)-2-((2-ethyl-6-(1-(2-(3-hydroxypyrrolidin-1-yl)-2-oxoethyl)piperidin-4-yl)imidazo[1,2-a]pyridin-3-yl)(methyl)amino)-4-(4-fluorophenyl)thiazole-5-carbonitrile]"
0.01 to 100,0.01 to 100,0.01 to 100,"CCc1nc2ccc(C3CCN(CC(=O)N(C)C)CC3)cn2c1N(C)c1nc(-c2ccc(F)cc2)c(C#N)s1 [Compound 145, 2-(4-(3-((5-cyano-4-(4-fluorophenyl)thiazol-2-yl)(methyl)amino)-2-ethylimidazo[1,2-a]pyridin-6-yl)piperidin-1-yl)-N,N-dimethylacetamide]"
500 to 1000,0.01 to 100,100 to 500,"CCc1nc2ccc(N3CCN(CC(=O)N(C)C)CC3)cn2c1N(C)c1nc(-c2ccc(F)cc2)c(CO)s1 [Compound 155, 2-(4-(2-ethyl-3-((4-(4-fluorophenyl)-5-(hydroxymethyl)thiazol-2-yl)(methyl)amino)imidazo[1,2-a]pyridin-6-yl)piperazin-1-yl)-N,N-dimethylacetamide]"
500 to 1000,0.01 to 100,> 1000,"CCc1nc2ccc(C3CCN(CC(=O)N4CC(O)C4)CC3)cn2c1N(C)c1nc(-c2ccc(F)cc2)c(CO)s1 [Compound 156, 2-(4-(2-ethyl-3-((4-(4-fluorophenyl)-5-(hydroxymethyl)thiazol-2-yl)(methyl)amino)imidazo[1,2-a]pyridin-6-yl)piperidin-1-yl)-1-(3-hydroxyazetidin-1-yl)ethanone]"
0.01 to 100,0.01 to 100,100 to 500,"CCc1nc2ccc(C3CCN(CC(=O)N4CC(O)C4)CC3)cn2c1N(C)c1nc(-c2ccc(F)cc2)c(C(=O)C(F)(F)F)s1 [Compound 159, 1-(2-((2-ethyl-6-(1-(2-(3-hydroxyazetidin-1-yl)-2-oxoethyl)piperidin-4-yl)imidazo[1,2-a]pyridin-3-yl)(methyl)amino)-4-(4-fluorophenyl)thiazol-5-yl)-2,2,2-trifluoroethanone]"
100 to 500,0.01 to 100,100 to 500,"CCc1nc2ccc(N3CCN(CC(=O)N4CC(O)C4)CC3)cn2c1N(C)c1nc(-c2ccc(F)cc2C#N)c(C)s1 [Compound 162, 2-(2-((2-ethyl-6-(4-(2-(3-hydroxyazetidin-1-yl)-2-oxoethyl)piperazin-1-yl)imidazo[1,2-a]pyridin-3-yl)(methyl)amino)-5-methylthiazol-4-yl)-5-fluorobenzonitrile]"
0.01 to 100,0.01 to 100,500 to 1000,"CCc1nc2ccc(N3CCN(CC(=O)N4CC(O)C4)CC3)cn2c1N(C)c1nc(-c2ccc(F)cc2C#N)cs1 [Compound 166, 2-(2-((2-ethyl-6-(4-(2-(3-hydroxyazetidin-1-yl)-2-oxoethyl)piperazin-1-yl)imidazo[1,2-a]pyridin-3-yl)(methyl)amino)thiazol-4-yl)-5-fluorobenzonitrile]"
0.01 to 100,0.01 to 100,100 to 500,"CCc1nc2ccc(N3CCN(CC(=O)N4CCC4)CC3)cn2c1N(C)c1nc(-c2ccc(F)cc2C#N)cs1 [Compound 167, 2-(2-((6-(4-(2-(azetidin-1-yl)-2-oxoethyl)piperazin-1-yl)-2-ethylimidazo[1,2-a]pyridin-3-yl)(methyl)amino)thiazol-4-yl)-5-fluorobenzonitrile]"
0.01 to 100,0.01 to 100,100 to 500,"CCc1nc2ccc(C3CCN(CC(=O)N4CC(O)C4)CC3)cn2c1N(C)c1nc(-c2ccc(F)cc2C#N)cs1 [Compound 170, 2-(2-((2-ethyl-6-(1-(2-(3-hydroxyazetidin-1-yl)-2-oxoethyl)piperidin-4-yl)imidazo[1,2-a]pyridin-3-yl)(methyl)amino)thiazol-4-yl)-5-fluorobenzonitrile]"
0.01 to 100,0.01 to 100,100 to 500,"CCc1nc2ccc(C3CCN(CC(=O)N(C)C)CC3)cn2c1N(C)c1nc(-c2ccc(F)cc2C#N)cs1 [Compound 171, 2-(4-(3-((4-(2-cyano-4-fluorophenyl)thiazol-2-yl)(methyl)amino)-2-ethylimidazo[1,2-a]pyridin-6-yl)piperidin-1-yl)-N,N-dimethylacetamide]"
0.01 to 100,0.01 to 100,100 to 500,"CCc1nc2ccc(C3CCN(CC(=O)N4CC(O)C4)CC3)cn2c1N(C)c1nc(-c2ccc(F)cc2C#N)ns1 [Compound 173, 2-(5-((2-ethyl-6-(1-(2-(3-hydroxyazetidin-1-yl)-2-oxoethyl)piperidin-4-yl)imidazo[1,2-a]pyridin-3-yl)(methyl)amino)-1,2,4-thiadiazol-3-yl)-5-fluorobenzonitrile]"
0.01 to 100,0.01 to 100,0.01 to 100,"CN(C)C(=O)CN1CCC(c2ccc3nc(CCC#N)c(N(C)c4nc(-c5ccc(F)cc5)cs4)n3c2)CC1 [Compound 174, 2-(4-(2-(2-cyanoethyl)-3-((4-(4-fluorophenyl)thiazol-2-yl)(methyl)amino)imidazo[1,2-a]pyridin-6-yl)piperidin-1-yl)-N,N-dimethylacetamide]"
> 1000,0.01 to 100,> 1000,"CCc1nc2ccc(N3CCN(CCO)CC3)cn2c1N(C)c1nc(-c2ccc(F)cc2)cs1 [Compound 180, 2-(4-(2-ethyl-3-((4-(4-fluorophenyl)thiazol-2-yl)(methyl)amino)imidazo [1,2-a]pyridin-6-yl)piperazin-1-yl)ethanol]"
> 1000,0.01 to 100,> 1000,"CCc1nc2ccc(N3CCS(=O)(=O)CC3)cn2c1N(C)c1nc(-c2ccc(F)cc2)cs1 [Compound 182, 4-(2-ethyl-3-((4-(4-fluorophenyl)thiazol-2-yl)(methyl)amino)imidazo[1,2-a]pyridin-6-yl)-thiomorpholine 1,1-dioxide]"
> 1000,0.01 to 100,100 to 500,"CCc1nc2ccc(C3=CCN(S(C)(=O)=O)CC3)cn2c1N(C)c1nccc(-c2ccc(F)cc2)n1 [Compound 187, 2-ethyl-N-(4-(4-fluorophenyl)pyrimidin-2-yl)-N-methyl-6-(1-(methylsulfonyl)-1,2,3,6-tetrahydropyridin-4-yl)imidazo[1,2-a]pyridin-3-amine]"
> 1000,0.01 to 100,> 1000,"CCc1nc2ccc(N3CCN(S(C)(=O)=O)CC3)cn2c1N(C)c1nc(-c2ccc(Cl)cc2)ns1 [Compound 188, 3-(4-chlorophenyl)-N-(2-ethyl-6-(4-(methylsulfonyl)piperazin-1-yl)imidazo[1,2-a]pyridin-3-yl)-N-methyl-1,2,4-thiadiazol-5-amine]"
500 to 1000,0.01 to 100,> 1000,"CCc1nc2ccc(N3CCN(Cc4cnc[nH]4)CC3)cn2c1N(C)c1nc(-c2ccc(F)cc2)cs1 [Compound 192, N-(6-(4-((1H-imidazol-5-yl)methyl)piperazin-1-yl)-2-ethylimidazo[1,2-a]pyridin-3-yl)-4-(4-fluorophenyl)-N-methylthiazol-2-amine]"

SMILES,IC50 (hENPP2 [1]) [nM],IC50 (hENPP2 [2]) [nM],IC50 (LPA 18:2 in rat plasma) [nM]
"CCc1nc2ccc(C3CCN(S(C)(=O)=O)CC3)cn2c1N(C)c1nc(-c2ccc(F)cc2)c(CO)s1 [Compound 147, (2-((2-ethyl-6-(1-(methylsulfonyl)piperidin-4-yl)imidazo[1,2-a]pyridin-3-yl)(methyl)amino)-4-(4-fluorophenyl)thiazol-5-yl)methanol]",100 to 500,0.01 to 100,100 to 500
"CCc1nc2ccc(C3CCN(S(C)(=O)=O)CC3)cn2c1N(C)c1nc(-c2ccc(F)cc2)c(C(=O)C(F)(F)F)s1 [Compound 160, 1-(2-((2-ethyl-6-(1-(methylsulfonyl)piperidin-4-yl)imidazo[1,2-a]pyridin-3-yl)(methyl)amino)-4-(4-fluorophenyl)thiazol-5-yl)-2,2,2-trifluoroethanone]",100 to 500,0.01 to 100,0.01 to 100
